The values below come from US11555212B2, “Process for the production of sulfated phenolic compounds using modified Escerichia coli” (CysBio ApS, priority 2016, dated 2023).

Assay [1] concerns the target T1, SULT1A1 Canis lupus familiaris (Canis lupus familiaris, UniProt Q29476).
T1 construct: 1, 3, 4, 5, and 6 were cloned amplified from liver tissue cDNA; expressed in transfected cells; host or cells: E. coli BL21(DE3)pLysS
Description: Production of zosteric acid from pHCA in E. coli expressing a sulfotransferase. The settings on record: E. coli BL21(DE3)pLysS expressing SULT1A1 Canis lupus familiaris; M9 glucose, 0.1 mM IPTG, 0.1 mM pHCA; four days. Format: cell-based. An excerpt: (§1) A range of aryl sulfotransferases including SULT1A1 Rattus norvegicus (SEQ ID NO: 1), SULT1A1 Homo sapiens (SEQ ID NO: 2), SULT1A1 Equus caballus (SEQ ID NO: 3), SULT1A1 Sus scrofa domesticus (SEQ ID NO: 4), SULT1A1 Canis lupus familiaris (SEQ ID NO: 5) and SULT1E1 Gallus gallus domesticus (SEQ ID NO: 6) were expressed in Escherichia coli. […]. The nucleotide sequence of the gene encoding SEQ ID NO: 2 was codon optimized for expression in Escherichia coli (GeneArt, Life Technologies) and amplified by PCR using the primers in Table 1. The pETDuet-1 plasmid was digested with restriction endonucleases NcoI and SalI. The PCR products were then individually cloned into the plasmid pETDuet-1 using the Gibson reaction (New England Biolabs). The resulting plasmids were transformed into BL21(DE3)pLysS (Life Technologies).
(§2) The strains were grown in M9 minimal media containing glucose as a carbon source, and 0.1 mM IPTG for induction of gene expression as well as 0.1 mM p-coumaric acid (pHCA). After four days of growth, samples were withdrawn by filtration and analyzed by HPLC.
(§3) The concentration of p-courmaric acid (pHCA) and zosteric acid in the supernatant was quantified by high performance liquid chromatography (HPLC) and compared to chemical standards. HPLC was done on a Thermo setup using a HS-F5 column and mobile phases: 5 mM ammonium formate pH 4.0 (A) and acetonitrile (B) at 1.5 mL min-1, using a gradient elution starting at 5% B. From 0.5 min after injection to 7 min, the fraction of B increased linearly from 5% to 60%, and between 9.5 min and 9.6 the fraction of B decreased back to 5%, and remaining there until 12 min. pHCA and zosteric acid were quantified by measuring absorbance at 277 nm.

Assay [2] concerns the target T2, SULT1A1 Rattus norvegicus (Rattus norvegicus, UniProt P17988).
T2 construct: 1, 3, 4, 5, and 6 were cloned amplified from liver tissue cDNA; expressed in transfected cells
The assay is described as above. Format: cell-based. As to conditions: E. coli BL21(DE3)pLysS expressing SULT1A1 Rattus norvegicus; M9 glucose, 0.1 mM IPTG, 0.1 mM pHCA; four days; culture media, HPLC.
Source text: as §1, §2, §3

The target in assay [3] is T3, SULT1A1 human (Homo sapiens, UniProt P50225, V223M).
T3 construct: expressed in transfected cells; host or cells: E. coli BL21(DE3)pLysS
The assay is described as above. The format is cell-based. The settings on record: E. coli BL21(DE3)pLysS expressing SULT1A1 Homo sapiens; M9 glucose, 0.1 mM IPTG, 0.1 mM pHCA; four days.
Source text: as §1, §2, §3

The target in assay [4] is T3, SULT1A1 human. Description: pHCA and zosteric acid in culture media of E. coli expressing an aryl sulfotransferase in combination with cysDNC and cysQ. Format: cell-based. As to conditions: Enzymes: SULT1A1 Homo sapiens, grown as in Example 1 (0.1 mM pHCA). The method, then: as §2, §3
The addition of sulfated groups to targets is dependent on supply of the donor molecule 3′-Phosphoadenosine 5′-phosphosulfate (PAPS). We examined if we could increase the production of zosteric acid by overexpressing enzymes providing PAPS and an enzyme that removes the product 3′-Phosphoadenosine 5′-phosphate (PAP).
In E. coli, the genes cysD and cysN encode the two subunits of ATP sulfurylase (EC:2.7.7.4), cysC encodes APS kinase (EC:2.7.1.25), and cysQ encode a PAP phosphatase.
The plasmid pRSFDuet-1 (Life Technologies) was digested by the restriction endonucleases NdeI and BgIII. The gene cluster was inserted into the digested plasmid using the Gibson reaction (New England Biolabs). […] For the combined expression of cysDNC and cysQ in an artificial operon, cysDNCQ, the two parts were amplified by PCR from E. coli MG1655 chromosomal DNA using the primers shown in Table 3. Again the parts were inserted into the digested plasmid. […] The plasmid expressing SULT1A1 Homo sapiens (SEQ ID NO: 2) from example 1 was co-transformed into E. coli BL21(DE3)pLysS cells (Life Technologies) with either the plasmid expressing cysDNC or cysDNCQ.
Cells were grown as in Example 1 and the supernatants were analyzed for product formation as in example 1. The strain expressing SULT1A1 in combination with cysDNCQ was also grown without the addition of IPTIG for induction.

The target in another assay is T4, RmXAL (Rhodotorula mucilaginosa, UniProt P10248).
T4 construct: The gene encoding RmXAL was codon optimized using standard algorithms for expression in E. coli; expressed in transfected cells; host or cells: E. coli BL21(DE3)pLysS
Briefly: pHCA and zosteric acid in culture media of E. coli expressing a tyrosine ammonia lyase. As to conditions: E. coli BL21(DE3)pLysS expressing RmXAL alone, M9 glucose, 0.1 mM IPTG, no substrate added. The format is cell-based, Rhodotorula mucilaginosa/Rhodotorula rubra. Here is the method: as §3
(§4) The enzyme RmXAL from Rhodotorula mucilaginosa/Rhodotorula rubra (SEQ ID NO: 46) has tyrosine ammonia lyase activity, thus catalyzing the non-oxidative deamination of the amino acid tyrosine, releasing p-coumaric acid (pHCA) and ammonia. The gene encoding RmXAL was codon optimized using standard algorithms for expression in E. coli available by GeneArt (Life Technologies) and amplified by PCR using the primers shown in Table 5 and inserted into the pCDFDuet-1 vector (Novagen/Life Technologies), which had been digested by the restriction enzymes NdeI and BgIII, using Gibson reaction (New England Biolabs). […]

Assay [5] deals with T3, SULT1A1 human. Description: pHCA and zosteric acid in culture media of E. coli expressing an aryl sulfotransferase in combination with a tyrosine ammonia lyase. Format: cell-based. As to conditions: E. coli BL21(DE3)pLysS expressing SULT1A1 Homo sapiens and RmXAL, M9 glucose, 0.1 mM IPTG, no substrate added. The method, then: as §3, §4

T3 sequence (P50225 whole entry V223M): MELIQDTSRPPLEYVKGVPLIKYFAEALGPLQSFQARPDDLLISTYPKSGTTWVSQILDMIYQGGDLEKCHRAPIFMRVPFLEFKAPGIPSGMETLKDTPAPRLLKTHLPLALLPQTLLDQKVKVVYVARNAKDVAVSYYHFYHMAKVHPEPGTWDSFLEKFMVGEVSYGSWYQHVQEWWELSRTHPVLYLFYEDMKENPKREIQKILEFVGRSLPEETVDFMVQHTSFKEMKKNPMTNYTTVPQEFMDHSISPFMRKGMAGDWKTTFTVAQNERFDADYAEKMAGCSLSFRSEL
T2 sequence (P17988 whole entry): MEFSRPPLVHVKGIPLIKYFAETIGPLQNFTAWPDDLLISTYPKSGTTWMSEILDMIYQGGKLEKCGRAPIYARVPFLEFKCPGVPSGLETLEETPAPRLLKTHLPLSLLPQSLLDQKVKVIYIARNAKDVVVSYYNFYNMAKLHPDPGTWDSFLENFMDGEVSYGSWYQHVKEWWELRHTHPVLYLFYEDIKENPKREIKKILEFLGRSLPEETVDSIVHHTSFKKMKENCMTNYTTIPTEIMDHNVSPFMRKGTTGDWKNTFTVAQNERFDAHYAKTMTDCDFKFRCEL
T1 sequence (Q29476 whole entry): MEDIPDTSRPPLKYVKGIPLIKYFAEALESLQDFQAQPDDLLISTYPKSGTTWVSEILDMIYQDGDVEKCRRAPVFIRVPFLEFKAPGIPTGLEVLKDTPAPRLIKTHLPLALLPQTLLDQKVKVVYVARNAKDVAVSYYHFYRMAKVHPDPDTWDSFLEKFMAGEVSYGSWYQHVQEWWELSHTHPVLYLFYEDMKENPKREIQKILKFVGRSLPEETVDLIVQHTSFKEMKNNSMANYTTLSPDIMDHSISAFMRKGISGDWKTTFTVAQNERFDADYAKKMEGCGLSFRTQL
T4 sequence (P10248 whole entry): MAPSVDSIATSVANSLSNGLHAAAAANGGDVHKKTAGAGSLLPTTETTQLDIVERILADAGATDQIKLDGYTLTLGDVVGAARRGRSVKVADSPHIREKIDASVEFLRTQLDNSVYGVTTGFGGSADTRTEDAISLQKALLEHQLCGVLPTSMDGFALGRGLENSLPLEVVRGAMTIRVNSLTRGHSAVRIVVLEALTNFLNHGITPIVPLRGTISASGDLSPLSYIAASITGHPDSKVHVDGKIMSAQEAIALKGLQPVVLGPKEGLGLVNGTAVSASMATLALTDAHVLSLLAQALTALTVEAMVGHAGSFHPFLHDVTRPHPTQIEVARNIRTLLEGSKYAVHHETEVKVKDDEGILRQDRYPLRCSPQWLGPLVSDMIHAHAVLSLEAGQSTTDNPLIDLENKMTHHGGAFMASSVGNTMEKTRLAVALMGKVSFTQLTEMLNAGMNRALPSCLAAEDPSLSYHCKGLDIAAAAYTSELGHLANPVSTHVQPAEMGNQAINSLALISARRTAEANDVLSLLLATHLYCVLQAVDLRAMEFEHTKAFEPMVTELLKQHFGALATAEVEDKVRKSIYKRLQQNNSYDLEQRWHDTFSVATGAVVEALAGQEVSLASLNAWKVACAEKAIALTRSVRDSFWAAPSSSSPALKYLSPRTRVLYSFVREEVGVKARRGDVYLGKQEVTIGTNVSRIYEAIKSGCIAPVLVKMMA

As to `O=C(O)/C=C/c1ccc(OS(=O)(=O)O)cc1` [Zosteric acid, zosteric acid], the Zosteric acid formed in assay [1] was 0.01 mM; in assay [2], 0.10 mM; on SULT1A1 human [3], 0.02 mM; at SULT1A1 human [4] (CysDNC, induction 0.1 mM IPTG), 0.06 mM; on SULT1A1 human [4] (CysDNCQ, induction 0.1 mM IPTG) it was 0.09 mM; on SULT1A1 human [4] (induction 0.1 mM IPTG) it was 0.02 mM. In addition, the Zosteric acid formed entry on RmXAL is listed as “Not detectable”; at SULT1A1 human [5], 0.01 mM.
As to `O=C(O)/C=C/c1ccc(O)cc1` [pHCA, p-coumaric acid], the pHCA remaining in assay [1] is 0.10 mM; in assay [2] it was 0.02 mM; at SULT1A1 human [3] it was 0.08 mM; on SULT1A1 human [4] (CysDNC, induction 0.1 mM IPTG), 0.06 mM; on SULT1A1 human [4] (CysDNCQ, induction 0.1 mM IPTG), 0.04 mM; on SULT1A1 human [4] (CysDNCQ, induction None), 0.10 mM. In addition, on SULT1A1 human [4] (induction 0.1 mM IPTG), the pHCA remaining worked out at 0.08 mM. Further, the pHCA at RmXAL is reported as 0.04 mM; on SULT1A1 human [5], 0.02 mM.
